# According to US10858422B2, “Methods for treating systemic lupus erythematosus with an anti-apolipoprotein B antibody” (Abcentra, LLC, priority 2016, dated 2020):
# Read-outs that look alike come from different tables or passages of the source.
# Assays:
# [1] = in vivo, iv
# Source text: Random allocation was stratified by T2DM status and pre-diabetes status, presence of elevated screening tissue-to-background ratio TBR>2), and study site.
# [2] = system: monocyte chemoattractant protein 1, MCP-1; experiment: In vitro inhibition of oxLDL-mediated cytokine release (MCP-1); type: cell-based
# Procedure: The ability of orticumab to shut down macrophage pro-inflammatory activity locally in the plaque became the focus, as it was thought to be an important mechanism underlying its therapeutic activity. Initial hypothesis of using orticumab related to neutralizing oxLDL from the systemic compartment, which required 4 μg/mL=˜28 nM=11 mg of orticumab to neutralize 90% systemic oxLDL. Further in vitro assays provided an insight into the minimum effective concentration of orticumab needed to achieve 50% or 90% inhibition of oxLDL-mediated cytokine release (i.e., inhibition of monocyte chemoattractant protein 1, MCP-1): […]
# [3] = system: PBMC isolated from SLE patients; experiment: Uptake of DiI-oxLDL and cytokine release in SLE PBMC with MDA.P45-IgG; type: cell-based, human; conditions: 10 μg/ml antibody with 10 μg/ml labelled oxLDL, 24 hours
# Procedure: Flow cytometry analysis of PBMCs stimulated with DIloxLDL and MDA.P45-IgG antibody: PBMCs were slowly thawed in 37° C. PBS with 2% autologous serum, counted and seeded into appropriate medium and conditions. Medium for each stimuli condition was prepared from complete RPMI (cRPMI, 10 U/ml Penicillin/streptomycin, 1% L-glutamine, 1% sodium pyruvate, 1% Hepes and 0.1% mercaptoethanol) with 2% autologous serum (Sigma Aldrich) including the respective stimuli conditions and pre-incubated in 37° C. for 1 h before stimulating the cells with it. Condition 1; unstimulated, condition 2; 10 μg/ml Dil-OxLDL (Thermo Scientific), condition 3; 10 μg/ml Dil-OxLDL with MDA.P45-IgG. (Dil-OxLDL refers to oxidized LDL complexed with Dil dye).
# At time of experiment, cells were slowly thawed in 37° C. PBS containing 2% autologous serum. Cells were counted and all cells obtained were divided into three wells for respective condition mentioned above for 24 h at 37° C. in 5% CO2. After 24 h stimulation, medium was harvested and kept in −80° C. until cytokine analysis. Cells were washed twice in FACS buffer (PBS 1% bovine serum albumin […] EDTA), then stained with Zombie Aqua viability dye for 20 minutes in room temperature (RT). This was followed by another wash then incubation with anti-HLA-DR APC-Cy7 anti-CD3-PECy7 and anti-CD14-AF700 for 30 minutes in RT prior acquisition in Gallios flow cytometer (Beckman Coulter, Brea, Calif., USA). Cell populations were manually gated in FlowJo LTT (Tree Star, San Diego, Calif., USA).
# Multiplex analysis of PBMC cell culture medium: Cell culture medium from human SLE and control PBMCs were thawed on ice before analyzed using Multiplex Inflammation assay (Merck, Millipore, Burlington, Mass., USA) according to following kit instructions.
# Having observed the protective effect of MDA-p45 IgG on atherosclerosis development in B6.lpr.ApoE−/− mice, we next investigated how this antibody affected the interaction of SLE PBMC with oxLDL. We incubated the cells with 10 μg/ml of fluorescently labelled oxLDL for 24 hours with and without addition of 10 μg/ml MDA-p45 IgG.
# [4] = Phase IIa: safety, tolerability, anti-therapeutic antibodies; parameters: species or system human; conditions: in vivo
# Procedure: (§1) Incidence and severity of adverse events and clinical laboratory abnormalities as a measure of safety and tolerability of orticumab. Effects of orticumab on inflammatory and metabolic biomarkers. Serum and EDTA plasma samples for soluble biomarker analysis were obtained at baseline and on Day 29 and Day 85. Biomarker assays were performed using the HumanMAP1.6 multiplex panel from Rules Based Medicine (RBM). IL-6 and TNFα immunoassays were performed at Pacific Biomarkers using Quantikine R&D High Sensitivity ELISA. IL-10, MPO and oxLDL immunoassays were performed at Pacific Biomarkers using immunoassay kits from MSA, Prognostix, and Mercodia, respectively. Presence of anti-therapeutic antibodies to orticumab.
# [5] = system: patients with atherosclerosis and evidence of carotid or aortic plaque inflammation; experiment: Phase IIa: inflammatory and metabolic biomarkers; type: in vivo, human
# Procedure: as §1
# [6] = in vivo
# oxidized LDL = oxidized LDL (Homo sapiens, UniProt P04114); conditions: cited from earlier work
# SLE ApoE−/− mice = experiment: Passive immunization: plaque area and composition in aortic root, flat preps of aorta; type: in vivo, mouse
# Procedure: SLE ApoE^−/− mice were treated with three weekly injections of either orticumab or an irrelevant antibody as control. Six-week old mice were fed with HFD, and were injected at weeks 18, 19 and 20 with orticumab (one dose of 1 mg per week, IP injections), and sacrificed for analysis in week 22. Plaque area and composition were determined in the aortic root.
# [7] = in vivo; remark: listed apart in the source
# [8] = oxLDL-mediated cytokine release
# Sequence of oxidized LDL (P04114 28-4563): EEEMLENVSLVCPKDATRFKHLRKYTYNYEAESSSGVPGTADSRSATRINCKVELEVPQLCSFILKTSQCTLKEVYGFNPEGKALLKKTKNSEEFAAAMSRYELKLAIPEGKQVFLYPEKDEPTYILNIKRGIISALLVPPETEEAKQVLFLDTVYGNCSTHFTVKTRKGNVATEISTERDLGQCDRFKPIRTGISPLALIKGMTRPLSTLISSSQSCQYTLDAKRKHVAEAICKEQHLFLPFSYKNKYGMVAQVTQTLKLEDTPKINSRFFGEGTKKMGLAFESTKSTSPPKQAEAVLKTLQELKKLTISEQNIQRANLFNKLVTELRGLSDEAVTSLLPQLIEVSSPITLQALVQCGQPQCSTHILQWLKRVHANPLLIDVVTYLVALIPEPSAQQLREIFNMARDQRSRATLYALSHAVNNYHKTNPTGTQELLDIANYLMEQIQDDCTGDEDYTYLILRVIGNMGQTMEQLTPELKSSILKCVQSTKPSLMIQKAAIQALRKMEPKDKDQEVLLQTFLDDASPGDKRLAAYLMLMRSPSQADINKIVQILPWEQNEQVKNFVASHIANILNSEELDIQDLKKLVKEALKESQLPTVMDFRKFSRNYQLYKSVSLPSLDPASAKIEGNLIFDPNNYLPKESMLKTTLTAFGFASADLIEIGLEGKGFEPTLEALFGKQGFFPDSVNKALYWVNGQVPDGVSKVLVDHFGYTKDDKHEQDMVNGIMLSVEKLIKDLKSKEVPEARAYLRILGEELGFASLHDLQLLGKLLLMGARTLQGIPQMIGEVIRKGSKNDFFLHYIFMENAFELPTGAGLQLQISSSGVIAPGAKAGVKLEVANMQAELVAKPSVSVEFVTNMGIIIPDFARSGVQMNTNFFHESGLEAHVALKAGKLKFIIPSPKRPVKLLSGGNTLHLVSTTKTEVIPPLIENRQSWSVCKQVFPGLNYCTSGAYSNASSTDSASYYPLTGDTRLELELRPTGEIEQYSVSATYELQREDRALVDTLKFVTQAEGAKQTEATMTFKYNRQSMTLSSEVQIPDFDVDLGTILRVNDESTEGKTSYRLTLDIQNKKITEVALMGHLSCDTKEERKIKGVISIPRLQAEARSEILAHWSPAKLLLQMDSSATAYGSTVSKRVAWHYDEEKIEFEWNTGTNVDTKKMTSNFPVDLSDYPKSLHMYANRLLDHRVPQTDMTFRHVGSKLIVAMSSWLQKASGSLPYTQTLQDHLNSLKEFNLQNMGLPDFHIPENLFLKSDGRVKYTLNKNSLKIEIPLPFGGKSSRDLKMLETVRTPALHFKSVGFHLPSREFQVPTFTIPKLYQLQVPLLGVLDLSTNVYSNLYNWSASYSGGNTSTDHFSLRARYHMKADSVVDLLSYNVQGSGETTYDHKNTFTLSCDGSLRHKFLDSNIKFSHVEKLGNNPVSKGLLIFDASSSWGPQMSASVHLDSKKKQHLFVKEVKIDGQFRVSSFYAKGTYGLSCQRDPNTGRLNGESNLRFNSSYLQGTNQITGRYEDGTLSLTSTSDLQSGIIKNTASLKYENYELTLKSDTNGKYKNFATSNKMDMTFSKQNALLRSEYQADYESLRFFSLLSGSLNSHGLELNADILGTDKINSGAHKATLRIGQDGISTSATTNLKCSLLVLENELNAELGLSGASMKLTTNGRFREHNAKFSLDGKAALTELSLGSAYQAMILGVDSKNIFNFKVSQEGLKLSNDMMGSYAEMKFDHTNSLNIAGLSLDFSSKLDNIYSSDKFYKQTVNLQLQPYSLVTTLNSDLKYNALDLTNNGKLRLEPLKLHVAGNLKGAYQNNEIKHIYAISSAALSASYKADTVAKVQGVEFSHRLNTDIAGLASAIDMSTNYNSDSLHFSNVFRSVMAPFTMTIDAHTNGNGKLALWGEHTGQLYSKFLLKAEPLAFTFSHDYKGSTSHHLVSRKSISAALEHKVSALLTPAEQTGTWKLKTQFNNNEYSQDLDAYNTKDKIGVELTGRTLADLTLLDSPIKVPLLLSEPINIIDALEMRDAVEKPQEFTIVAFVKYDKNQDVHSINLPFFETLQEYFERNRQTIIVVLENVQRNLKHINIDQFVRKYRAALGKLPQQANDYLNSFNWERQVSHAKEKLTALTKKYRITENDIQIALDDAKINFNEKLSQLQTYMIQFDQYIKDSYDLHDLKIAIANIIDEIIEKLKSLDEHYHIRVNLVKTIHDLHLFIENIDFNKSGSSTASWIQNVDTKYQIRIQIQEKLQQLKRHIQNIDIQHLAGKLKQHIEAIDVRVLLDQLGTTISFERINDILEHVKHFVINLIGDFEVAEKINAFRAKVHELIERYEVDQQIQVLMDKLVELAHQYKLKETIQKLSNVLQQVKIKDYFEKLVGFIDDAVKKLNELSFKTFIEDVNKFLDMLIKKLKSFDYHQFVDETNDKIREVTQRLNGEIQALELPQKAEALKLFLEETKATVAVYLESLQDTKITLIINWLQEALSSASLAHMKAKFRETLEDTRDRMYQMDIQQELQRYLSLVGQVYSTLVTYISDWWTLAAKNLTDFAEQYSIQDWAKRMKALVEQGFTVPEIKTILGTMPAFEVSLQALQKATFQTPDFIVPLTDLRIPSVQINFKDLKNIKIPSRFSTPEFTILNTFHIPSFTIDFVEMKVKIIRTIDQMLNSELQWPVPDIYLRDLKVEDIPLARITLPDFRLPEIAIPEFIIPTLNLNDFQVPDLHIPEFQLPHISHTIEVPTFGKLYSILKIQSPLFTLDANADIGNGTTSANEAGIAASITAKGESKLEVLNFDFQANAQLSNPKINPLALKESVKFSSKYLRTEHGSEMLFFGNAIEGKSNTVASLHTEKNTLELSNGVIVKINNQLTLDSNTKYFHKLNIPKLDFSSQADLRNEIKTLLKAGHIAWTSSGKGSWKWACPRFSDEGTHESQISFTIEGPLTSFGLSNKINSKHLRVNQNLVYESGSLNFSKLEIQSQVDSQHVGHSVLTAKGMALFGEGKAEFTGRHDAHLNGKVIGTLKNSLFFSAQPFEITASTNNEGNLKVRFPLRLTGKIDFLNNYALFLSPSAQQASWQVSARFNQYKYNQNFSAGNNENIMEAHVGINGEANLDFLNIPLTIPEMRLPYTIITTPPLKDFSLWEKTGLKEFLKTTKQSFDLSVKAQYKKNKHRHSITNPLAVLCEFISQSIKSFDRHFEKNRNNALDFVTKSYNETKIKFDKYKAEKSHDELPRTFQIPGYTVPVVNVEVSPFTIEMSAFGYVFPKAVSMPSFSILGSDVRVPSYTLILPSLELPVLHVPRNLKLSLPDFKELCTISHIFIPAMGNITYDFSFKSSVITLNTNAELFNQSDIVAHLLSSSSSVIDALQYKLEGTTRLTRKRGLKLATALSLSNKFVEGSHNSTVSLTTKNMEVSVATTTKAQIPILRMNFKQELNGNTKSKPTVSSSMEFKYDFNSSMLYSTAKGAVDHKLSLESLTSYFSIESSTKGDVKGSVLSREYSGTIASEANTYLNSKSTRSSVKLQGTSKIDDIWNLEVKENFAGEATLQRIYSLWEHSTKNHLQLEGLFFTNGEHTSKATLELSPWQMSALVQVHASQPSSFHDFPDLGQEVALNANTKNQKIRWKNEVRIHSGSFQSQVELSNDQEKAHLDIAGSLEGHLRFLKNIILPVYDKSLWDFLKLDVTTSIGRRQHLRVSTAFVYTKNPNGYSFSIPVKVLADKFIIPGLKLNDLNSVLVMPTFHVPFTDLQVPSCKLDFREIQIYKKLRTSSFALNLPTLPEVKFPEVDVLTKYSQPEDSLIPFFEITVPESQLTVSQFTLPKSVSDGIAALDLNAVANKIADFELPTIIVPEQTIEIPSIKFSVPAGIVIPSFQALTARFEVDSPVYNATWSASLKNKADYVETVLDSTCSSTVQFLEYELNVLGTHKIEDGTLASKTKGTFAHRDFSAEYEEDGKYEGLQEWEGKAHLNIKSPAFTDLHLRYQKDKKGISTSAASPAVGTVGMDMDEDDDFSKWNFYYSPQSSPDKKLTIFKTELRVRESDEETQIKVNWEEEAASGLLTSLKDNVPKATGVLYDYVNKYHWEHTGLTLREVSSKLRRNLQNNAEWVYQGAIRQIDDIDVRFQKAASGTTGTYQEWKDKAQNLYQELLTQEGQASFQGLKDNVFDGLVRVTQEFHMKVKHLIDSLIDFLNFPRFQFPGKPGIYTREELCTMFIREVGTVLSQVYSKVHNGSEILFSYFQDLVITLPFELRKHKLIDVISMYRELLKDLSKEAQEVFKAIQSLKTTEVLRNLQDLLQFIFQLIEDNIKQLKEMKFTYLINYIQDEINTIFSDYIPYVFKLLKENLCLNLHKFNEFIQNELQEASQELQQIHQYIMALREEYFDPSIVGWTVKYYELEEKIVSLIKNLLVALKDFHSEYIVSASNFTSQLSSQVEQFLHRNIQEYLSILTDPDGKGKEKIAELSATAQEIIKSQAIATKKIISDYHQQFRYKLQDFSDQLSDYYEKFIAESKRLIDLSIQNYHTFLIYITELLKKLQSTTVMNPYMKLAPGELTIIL
substance,measurement,setting,value
"orticumab: recombinant human IgG1 against MDA-modified peptide 45 of ApoB100; heavy chain SEQ ID NO: 316, light chain SEQ ID NO: 317",Cmax D 1,[1],297 μ/mL
same,IC50 for MCP-1 inhibition,[2]; expressed as amount,~4 mg
same,IC90 for MCP-1 inhibition,[2]; expressed as amount,12.4 to 33 mg
same,IC50 for MCP-1 inhibition,[2]; [8],1.5 µg/mL
same,IC90,[2]; [8],30 to 80 nM
same,IC90 for MCP-1 inhibition,[2]; [8],4.5 to 12 µg/mL
same,cellular uptake of oxLDL,[3],increased cellular uptake
same,expression of CD14 and uptake of oxLDL in CD14+ APC,[3],increased
same,release of anti-inflammatory cytokine IL-1RA,[3],modest increase
same,"dose-limiting toxicities, deaths, pregnancies",[4],"No dose-limiting toxicities, deaths, or pregnancies"
same,immunogenicity,[4],no evidence of immunogenicity
same,serious adverse events related to procedures or administration,[4],No serious adverse events
same,tolerability,[4],well tolerated
same,interleukin 6 level,"[5]; 4 weeks, multiple-dose group",nominal increase
same,tumor necrosis factor alpha level,"[5]; 4 weeks, multiple-dose group",nominal increase
same,lipid parameters or high-sensitivity C-reactive protein level,[5]; either group,No significant decreases
same,SAEs during the study,[6],no SAEs
same,most frequently reported TEAEs,[6]; sc,mild intensity local site reactions
same,"binding specificity, oxidized vs native LDL",oxidized LDL,binds only to oxidized LDL and not to native LDL
same,plaque area in aortic root,"SLE ApoE−/− mice; 1 mg IP weekly at weeks 18, 19, 20, vs control antibody",significantly smaller plaques
same,apoptosis in plaque areas (number of TUNEL cells),SLE ApoE−/− mice; 1 mg IP weekly x3,increased apoptosis
same,"lipid staining, flat preps of the aorta",SLE ApoE−/− mice; 1 mg IP weekly x3,"reduction, although not significant"
same,CD68+ area,"SLE ApoE−/− mice; 1 mg IP weekly x3, vs control antibody",reduced
same,C ≥ 1 μg/mL,[7],Day 57
same,C ≥ 4 μg/mL,[7],Day 15
same,C ≥ 12 μg/mL,[7],Day 8
same,t1/2,"[7]; iv, 360 mg",20.3 (2.91) d
same,C ≥ 1 μg/mL,[7]; sc,Day 43
same,C ≥ 4 μg/mL,[7]; sc,Day 15
